Results from patent US20240269058A1, “AGAR HYDROLYSIS PRODUCT HAVING HYALURONIDASE INHIBITORY ACTIVITY AND USES THEREOF” (KOREA INSTITUTE OF OCEAN SCIENCE & TECHNOLOGY, priority 2022, published 2024).

Molecular target: hyaluronidase (HAase)
Test: Hyaluronidase (HAase) inhibitory activity, N-acetylglucosamine from hyaluronic acid, DMAB absorbance at 540 nm
Assay type: biochemical
Description: The hyaluronidase (HAase) inhibitory activity was identified by measuring N-acetylglucosamine produced by degradation of hyaluronic acid by hyaluronidase. 12.5 μL of HAase (8 mg/mL) dissolved in 0.1 M acetate buffer (pH 3.5) was mixed with 12.5 μL of agar partial hydrolysis product (PHP) at a concentration of 9 mg/mL and reacted at 37° C. for 20 minutes. To activate the HAase, the mixture was added with 25 μL of 12.5 mM CaCl2) and reacted at 37 °C for 20 minutes, and added with 62.5 μL of hyaluronic acid (2.4 mg/ml) dissolved in 0.1 M acetate buffer (pH 3.5) and reacted at 37° ° C. for 40 minutes again. To stop the substrate-enzyme reaction, the reaction solution was added with 25 μl of 0.4 N NaOH and 25 μl of 0.4 N potassium tetraborate, reacted at 100° C. for 3 minutes, and then cooled. The reaction solution was added with 750 μl of a DMAB solution and cultured at 37 °C for 20 minutes, and the absorbance was measured at 540 nm. The inhibitory activity was calculated using the following equation.

Compound: O=C([O-])c1cc(=O)c2c(OCC(O)COc3cccc4oc(C(=O)[O-])cc(=O)c34)cccc2o1.[Na+].[Na+] [DSCG, Disodium cromoglycate]
- IC50 (hyaluronidase inhibition): 28 ± 10 µg/mL
- Inhibition (%) (sample solution 1 mg/mL): 65.32 ± 0.20%
